In patent US8519007B2, “Use certain diterpene compounds in the treatment of androgen receptor-associated diseases” (Academia Sinica, priority 2008, dated 2013):

Assays:
[1] = tested on: PSA and AR expression in LNCaP cells; assay: Western blot of PSA and AR expression in DHT-treated LNCaP cells; assay type: cell-based, human; conditions: 10 nM DHT, 24 h
Source text: The AR suppressing activity of HDHS was also examined in LNCaP cells, another androgen-dependent PCa cell line. […] Expression of endogenous PSA in treated cells, as a measure of cellular response to androgen, and AR activity were detected by western blot with anti-PSA and anti-AR antibodies. Protein levels (relative to actin; listed below the first two blots) were quantitatively analyzed with Chemigenius (Biolabo). The blots shown in FIG. 2B are representative of three independent experiments.

[2] = tested on: 22Rv1 cells; assay: MTT cell viability; assay type: cell-based, human; conditions: 22Rv1, concentrations above 10 μM, 48 h
Method: (§1) The effects of HDHS on cell viability in various PCa cell lines including androgen-dependent LNCaP, androgen-responsive 22Rv1 cells, and androgen-independent PC-3 cells were tested and compared with untransformed fibroblast NIH-3T3 cells. PCa or NIH-3T3 cells (1×10^4 cells) were seeded into 96-well microtiter plates with 10% FBS culture medium. After 24 h, cells were incubated in 10% FBS medium containing different concentrations of HDHS or equivalent amounts of vehicle alone as control for 48 h. Cell viability was then determined by MTT assay, which quantitatively measures the metabolic activity of living cells.

[3] = tested on: PC-3 cells; assay: MTT cell viability; assay type: cell-based, human; conditions: PC-3, concentrations above 10 μM, 48 h, versus LNCaP and 22Rv1
Method: as §1

[4] = tested on: LNCaP cells; assay: MTT cell viability; assay type: cell-based, human; conditions: concentrations above 10 μM, 48 h
Method: as §1

[5] = tested on: 22Rv1 cells; assay: Apoptosis by nucleosome release (cytoplasmic DNA fragmentation); assay type: cell-based, human; conditions: 22Rv1, 5-10 μM, 24 h
Method: A, Apoptosis of cytoplasmic DNA fragmentation in different cell lines treated with vehicle or indicated concentrations of HDHS for 24 h. Difference between the indicated pair of treatments was tested for statistic significance as marked. *, P≦0.05; **, P≦0.01.
In light of the increase of sub-G1 populations by HDHS, apoptosis in treated cells was further analyzed via measurement of nucleosome release in PCa cells.

[6] = tested on: PC-3 cells; assay: Cell cycle distribution by propidium iodide flow cytometry; assay type: cell-based, human; conditions: 48 h
Method: (§4) The cell cycle of treated cells was examined by flow cytometry after cellular staining with propidium iodide. 5×10^5 cells were seeded into 6-well multidishes with 10% FBS culture medium for 48 h. […] Cells were trypsinized thereafter, washed twice with cold PBS, and centrifuged. The pellet was suspended in cold PBS and 1 mL of 70% ethanol at 4° C. overnight, washed twice with cold PBS, and digested with RNase (100 μg/mL final concentration) and stained with propidium iodide (10 μg/mL final concentration) for 30 min and analyzed by flow cytometry (EPICS XL-MCL, Beckman Coulter, Inc., Fullerton, Calif.).

[7] = tested on: 22Rv1 tumors; assay: 22Rv1 xenograft in athymic nude mice, oral HDHS; assay type: in vivo
Method: 22Rv1 cells were derived from a castration-relapsed tumor of human PCa origin that represents a clinical limitation for hormonal therapy (Nagabhushan M, et al., Cancer Res 1996;56:3042-6; Sramkoski R M, et al., In Vitro Cell Dev Biol Anim 1999; 35:403-9). The potential of HDHS to inhibit growth of PCa in vivo was tested in athymic nude mice with 22Rv1 tumors. […]. All animal work was done in accordance with the protocol approved by the Institutional Animal Care and Use Committee, Academia Sinica. Aliquots of 1×10^6 22Rv1 cells were suspended in 1:1 PBS mixed with Matrigel (BD Biosciences, San Jose, Calif.) and were subcutaneously inoculated into the right flank of each mouse. Once the tumor grew to palpable size one week after 22Rv1 cells were implanted, mice were stochastically assigned to three groups (n=7) that received vehicle control or HDHS at different dosages (0.5 and 2.5 mg/kg/day), by gavage in 0.2 mL of PBS containing 10% DMSO. Tumors were measured twice per week using calipers and their volumes calculated using a standard formula, as follows: width2×length×0.5. Body weight was measured weekly. Mice received 24 doses, and 24 h after the last dose they were sacrificed to harvest plasma and tumors. A portion of each tumor was snap-frozen in liquid nitrogen and stored at −80° C. until needed for western blot analysis of relevant biomarkers, and the remainder was fixed in 10% formalin overnight.
Immunohistochemistry was conducted to examine the in vivo effects of HDHS on proliferation and apoptosis in tumor xenografts. The paraffin-embedded tumor sections (4 μm thickness) were heat immobilized, deparaffinized using xylene and rehydrated in a graded series of ethanol with a final wash in distilled water. Antigen retrieval was done in TARGET RETRIEVAL SOLUTION (DakoCytomation, Glostrup, Denmark) in a DECLOAKING CHAMBER (Biocare Medical, Concord, Calif.) followed by quenching of endogenous peroxidase activity. Sections were then incubated with specific primary antibodies, including mouse monoclonal anti-Ki-67 (DakoCytomation) and rabbit polyclonal anti-AR (Santa Cruz) at 4° C. overnight in a humidity chamber. An ENVISION system (DakoCytomation) was used to detect the reaction products. In situ detection of apoptotic cells was carried out using terminal deoxynucleotidyl transferase-mediated nick-end labeling (TUNEL assay) reaction mixture according to the manufacturer's protocol (Chemicon).

[8] = tested on: 22Rv1 cells; assay: Colony-forming growth assay; assay type: cell-based; conditions: Homo sapiens, 288 h; 22Rv1, 12 days; read-out: IC50 (anti-proliferation potency), colony growth
Method: (§2) FIGS. 3A-C. HDHS affects growth of PCa cells. A, Cell viability of different cell lines treated with vehicle (Ctrl) or indicated concentrations of HDHS for 48 h. The absorbance of the control group was defined as 100%. B, Colony-forming growth of LNCaP and 22Rv1 cells (AR-dependent PCa cells) and PC-3 cells (AR-independent PCa cells) in 24-well multi-dishes with indicated treatments for 12 days. The results were presented as percentage of growth with respect to control treatment of the same cell line. C, Photographs of different PCa cell lines growing on culture plates with designated treatments for […].
(§3) The long-term effect of HDHS on the malignant growth of AR-dependent (22Rv1, and LNCaP) and AR-independent (PC-3) PCa cells was examined by colony-forming growth assay. […] The differential effect was also reflected in the morphology of treated cells.

[9] = tested on: PC-3 cells; assay: Colony-forming growth assay; assay type: cell-based; conditions: Homo sapiens, 288 h; PC-3, 12 days; read-out: IC50 (anti-proliferation potency), colony growth
Method: as §2, §3

[10] = tested on: LNCaP cells; assay: Colony-forming growth assay; assay type: cell-based; conditions: Homo sapiens, 288 h, 12 days, read-out: IC50 (anti-proliferation potency), colony growth
Method: as §2, §3

[11] = tested on: LNCaP cells; assay: Cell cycle distribution by propidium iodide flow cytometry; assay type: cell-based, human; conditions: 48 h
Method: as §4

[12] = 0.5 and 2.5 mg/kg/day oral, 24 days

CC(C)c1cc2c(cc1O)[C@@]1(C)CCCC(C)(C)C1=C(O)C2=O [Compound 2, 6,12-dihydroxyabieta-5,8,11,13-tetraen-7-one]
AR activation of PSA expression by DHT ([1]; 10 μM): completely abolished
protein levels of AR ([1]; 10 μM): fell to basal level
protein levels of AR ([1]; 2.5 or 5 μM): not significantly altered
cell viability (MTT) [2]: strongly reduced cell viability
cell viability (MTT) [3]: far less pronounced
cell viability (MTT) [4]: strongly reduced cell viability
apoptosis (nucleosome release) [5]: significantly induced
G0-G1 phase cell population ([6]; PC-3, 2.5 μM): 52.7 ± 2.0 %
G2-M phase cell population ([6]; PC-3, 2.5 μM): 24.9 ± 2.7 %
S phase cell population ([6]; PC-3, 2.5 μM): 19.2 ± 1.0 %
Sub-G1 phase cell population ([6]; PC-3, 2.5 μM): 2.3 ± 0.7 %
G0-G1 phase cell population ([6]; PC-3, 5 μM): 55.9 ± 2.9 %
G2-M phase cell population ([6]; PC-3, 5 μM): 19.5 ± 2.9 %
S phase cell population ([6]; PC-3, 5 μM): 18.8 ± 1.1 %
Sub-G1 phase cell population ([6]; PC-3, 5 μM): 2.8 ± 0.9 %
G0-G1 phase cell population ([6]; PC-3, 10 μM): 58.2 ± 2.8 %
G2-M phase cell population ([6]; PC-3, 10 μM): 19.2 ± 3.2 %
S phase cell population ([6]; PC-3, 10 μM): 18.0 ± 1.9 %
Sub-G1 phase cell population ([6]; PC-3, 10 μM): 2.1 ± 0.6 %
Ki-67 positive proliferative tumor cells [7, 12]: decreased the number of cells positively stained for Ki-67
TUNEL positive apoptotic tumor cells [7, 12]: increase of apoptotic tumor cells
AR expression in tumor cells (immunohistochemistry) ([7]; HDHS-treated 22Rv1 tumors): prevalent decrease of AR expression
tumor growth of 22Rv1 xenograft ([7]; nude mice, 0.5 and 2.5 mg/kg/day by gavage, 24 doses): significantly retarded tumor growth
symptoms of toxicity (loss of appetite, decreased locomotion, signs of illness) ([7]; nude mice, 24-day regimen, oral): did not exhibit any symptoms of toxicity
body weight of tested mice ([7]; up to 2.5 mg/kg per day, oral): not influenced
IC50 [8]: 6.3 µM
IC50 [9]: 13.2 µM
IC50 [10]: 7.5 µM
G0-G1 phase cell population ([11]; 2.5 μM): 62.6 ± 2.8 %
G2-M phase cell population ([11]; 2.5 μM): 21.1 ± 2.4 %
S phase cell population ([11]; 2.5 μM): 11.5 ± 2.1 %
Sub-G1 phase cell population ([11]; 2.5 μM): 0.8 ± 0.4 %
G0-G1 phase cell population ([11]; 5 μM): 66.9 ± 2.0 %
G2-M phase cell population ([11]; 5 μM): 18.7 ± 3.5 %
S phase cell population ([11]; 5 μM): 8.1 ± 1.8 %
Sub-G1 phase cell population ([11]; 5 μM): 3.9 ± 0.7 %
G0-G1 phase cell population ([11]; 10 μM): 45.1 ± 3.1 %
G2-M phase cell population ([11]; 10 μM): 20.2 ± 2.1 %
S phase cell population ([11]; 10 μM): 6.8 ± 2.4 %
Sub-G1 phase cell population ([11]; 10 μM): 24.3 ± 3.1 %
